We go through five compounds from patent publication US7183324B2, “2,3,4-substituted cyclopentanones as therapeutic agents” (Allergan, Inc., priority 2004, dated 2007).

In one series the target is T1, hTP (Homo sapiens, UniProt P21731).
T1 construct: expressed in transfected cells; host or cells: HEK-293 (EBNA)
T1 sequence (P21731 1-343): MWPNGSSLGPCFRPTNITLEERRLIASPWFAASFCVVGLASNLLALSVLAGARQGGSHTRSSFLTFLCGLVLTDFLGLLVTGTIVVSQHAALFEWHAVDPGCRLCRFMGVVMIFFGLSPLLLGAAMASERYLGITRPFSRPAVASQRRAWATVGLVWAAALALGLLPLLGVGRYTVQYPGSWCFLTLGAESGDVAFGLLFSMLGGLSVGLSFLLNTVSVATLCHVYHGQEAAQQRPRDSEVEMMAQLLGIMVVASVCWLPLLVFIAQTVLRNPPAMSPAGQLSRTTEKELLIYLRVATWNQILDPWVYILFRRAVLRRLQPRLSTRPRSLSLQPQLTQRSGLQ
Briefly: FLIPR calcium signal, hTP. The class given is cell-based. The settings on record: HEK-293 (EBNA) cells, read-out: FUNCTIONAL EC50 HTP. The procedure:
(§1) HEK-293 (EBNA) cells, stably expressing one type or subtype of recombinant human prostaglandin receptors (prostaglandin receptors expressed: hDP/Gqs5; hEP1; hEP2/Gqs5; hEP3A/Gqi5; hEP4/Gqs5; hFP; hIP; hTP), were cultured in 100 mm culture dishes in high-glucose DMEM medium containing 10% fetal bovine serum, 2 mM 1-glutamine, 250 μg/ml geneticin (G418) and 200 μg/ml hygromycin B as selection markers, and 100 units/ml penicillin G, 100 μg/ml streptomycin and 0.25 μg/ml amphotericin B. • (b) Calcium Signal Studies on the FLIPR™
(§2) Cells were seeded at a density of 5×10^4 cells per well in Biocoat® Poly-D-lysine-coated black-wall, clear-bottom 96-well plates (Becton-Dickinson) and allowed to attach overnight in an incubator at 37° C. Cells were then washed two times with HBSS-HEPES buffer (Hanks Balanced Salt Solution without bicarbonate and phenol red, 20 mM HEPES, pH 7.4) using a Denley Cellwash plate washer (Labsystems). After 45 minutes of dye-loading in the dark, using the calcium-sensitive dye Fluo-4 AM at a final concentration of 2 μM, plates were washed four times with HBSS-HEPES buffer to remove excess dye leaving 100 μl in each well. Plates were re-equilibrated to 37° C. for a few minutes.
(§3) Cells were excited with an Argon laser at 488 nm, and emission was measured through a 510–570 nm bandwidth emission filter (FLIPR™, Molecular Devices, Sunnyvale, Calif.). Drug solution was added in a 50 μl volume to each well to give the desired final concentration. The peak increase in fluorescence intensity was recorded for each well. On each plate, four wells each served as negative (HBSS-HEPES buffer) and positive controls (standard agonists: BW245C (hDP); PGE2 (hEP1; hEP2/Gqs5; hEP3A/Gqi5; hEP4/Gqs5); PGF2α (hFP); carbacyclin (hIP); U46619 (hTP), depending on receptor). The peak fluorescence change in each drug-containing well was then expressed relative to the controls.
(§4) Compounds were tested in a high-throughput (HTS) or concentration-response (CoRe) format. In the HTS format, forty-four compounds per plate were examined in duplicates at a concentration of 10^−5 M. To generate concentration-response curves, four compounds per plate were tested in duplicates in a concentration range between 10^−5 and 10^−11 M. The duplicate values were averaged. In either, HTS or CoRe format each compound was tested on at least 3 separate plates using cells from different passages to give an n≧3.

A further series deals with T2, HEP2 (Homo sapiens, UniProt P43116).
T2 construct: expressed in transfected cells; host or cells: HEK-293
T2 sequence (P43116 whole entry): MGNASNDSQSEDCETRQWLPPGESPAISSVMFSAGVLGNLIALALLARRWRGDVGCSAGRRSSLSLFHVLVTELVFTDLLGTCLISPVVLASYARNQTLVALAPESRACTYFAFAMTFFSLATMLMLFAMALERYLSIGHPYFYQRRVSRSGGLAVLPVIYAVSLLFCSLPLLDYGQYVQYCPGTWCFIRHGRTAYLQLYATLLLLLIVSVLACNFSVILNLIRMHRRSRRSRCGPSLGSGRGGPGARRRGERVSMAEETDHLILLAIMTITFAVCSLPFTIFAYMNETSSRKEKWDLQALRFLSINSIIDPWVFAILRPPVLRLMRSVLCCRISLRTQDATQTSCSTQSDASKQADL
Briefly: Radioligand binding, EP2 receptor. Conditions: [3H]PGE2 5 nM, HEK-293 membranes. The procedure: (§5) HEK-293 cells stably expressing the human or feline FP receptor, or EP1, EP2, or EP4 receptors were washed with TME buffer, scraped from the bottom of the flasks, and homogenized for 30 sec using a Brinkman PT 10/35 polytron. TME buffer was added to achieve a final 40 ml volume in the centrifuge tubes (the composition of TME is 100 mM TRIS base, 20 mM MgCl2, […]; 10N HCl is added to achieve a pH of 7.4).
(§6) The cell homogenate was centrifuged at 19000 r.p.m. for 20 min at 4° C. using a Beckman Ti-60 rotor. The resultant pellet was resuspended in TME buffer to give a final 1 mg/ml protein concentration, as determined by Biorad assay. Radioligand binding competition assays vs. [^3H-]17-phenyl PGF2α (5 nM) were performed in a 100 μl volume for 60 min. Binding reactions were started by adding plasma membrane fraction. The reaction was terminated by the addition of 4 ml ice-cold TRIS-HCl buffer and rapid filtration through glass fiber GF/B filters using a Brandel cell harvester. The filters were washed 3 times with ice-cold buffer and oven dried for one hour. Non-specific binding was determined with 10 uM unlabeled 17-phenyl PGF2α.
(§7) [^3H-] PGE2 (5 nM; specific activity 180 Ci mmol) was used as the radioligand for EP receptors. Binding studies employing EP1, EP2, EP3, EP4 were performed in duplicate in at least three separate experiments. A 200 μl assay volume was used. Incubations were for 60 min at 25° C. and were terminated by the addition of 4 ml of ice-cold 50 mM TRIS-HCl, followed by rapid filtration through Whatman GF/B filters and three additional 4 ml washes in a cell harvester (Brandel). Non-specific binding determined with 10^−5M of unlabeled PGE2.

The test system of series [1] is Beagle dogs. In words: Ocular surface hyperemia in dogs. Conditions: dog, topical, Conc. 0.1%; score: trace 0.5, mild 1, moderate 2, severe 3. It is filed as in vivo. The procedure: (§8) • Intraocular Pressure (IOP) Intraocular pressure studies in dogs involved pneumatonometry performed in conscious, Beagle dogs of both sexes (10–15 kg). The animals remained conscious throughout the study and were gently restrained by hand. Drugs were administered topically to one eye as a 25 μL volume drop, the other eye received 25 μL vehicle (0.1% polysorbate 80:10 mM TRIS) as a control. Proparacaine (0.1%) was used for corneal anesthesia during tonometry. Intraocular pressure was determined just before drug administration and at 2, 4 and 6 hr thereafter on each day of the 5 day study. Drug was administered immediately after the first IOP reading. • An analogous procedure was carried out with cynomolgus monkeys with measurements at 2, 4, 6, and 24 hours after a single dose. • Pupil Diameter • Dog pupil diameter was measured using an optistick (a mm ruler which included half-circle references of standard widths (mm) for reference. Gently restraining the dog by hand, pupil diameter was determined by matching a half-circle to the pupil in normal room light. In dogs with very dark pupils a specialized penlight was used, but only very briefly to avoid pupil constriction. Pupil diameter was measured at the same time as IOP and hyperemia. • Ocular Surface Hyperemia • Ocular surface hyperemia was visually assessed and scored according to a system typically used clinically.
• Ocular surface hyperemia was evaluated at the same time points as intraocular pressure measurement. It should be noted that untreated dog eyes frequently have a pink/red tone. Thus, values of trace or even mild are not necessarily out of the normal range.

A further series addresses T3, hEP3A/Gqi5 (Homo sapiens, UniProt P43115).
T3 construct: expressed in transfected cells; host or cells: HEK-293 (EBNA)
T3 sequence (P43115 1-390): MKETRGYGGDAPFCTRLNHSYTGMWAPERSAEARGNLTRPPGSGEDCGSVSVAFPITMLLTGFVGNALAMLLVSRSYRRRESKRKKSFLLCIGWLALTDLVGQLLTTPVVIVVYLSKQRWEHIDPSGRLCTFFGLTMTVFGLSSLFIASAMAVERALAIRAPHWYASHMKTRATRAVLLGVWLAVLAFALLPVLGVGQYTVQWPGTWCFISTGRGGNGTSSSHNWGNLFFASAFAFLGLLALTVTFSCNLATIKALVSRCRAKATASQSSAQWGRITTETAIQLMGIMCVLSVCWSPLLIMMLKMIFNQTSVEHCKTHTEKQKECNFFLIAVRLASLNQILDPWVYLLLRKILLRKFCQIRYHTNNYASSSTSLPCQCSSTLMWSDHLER
Briefly: FLIPR calcium signal, hEP3A/Gqi5. It is filed as cell-based. Conditions: HEK-293 (EBNA) cells, read-out: FUNCTIONAL EC50 HEP3A. The procedure:
as §1, §2, §3, §4

A further series addresses T4, hEP4/Gqs5 (Homo sapiens, UniProt P35408).
T4 construct: expressed in transfected cells; host or cells: HEK-293 (EBNA)
In words: FLIPR calcium signal, hEP4/Gqs5. It is filed as cell-based. The settings on record: HEK-293 (EBNA) cells, read-out: FUNCTIONAL EC50 HEP4. The protocol:
as §1, §2, §3, §4

The test system of series [2] is Beagle dogs. Briefly: Intraocular pressure in dogs (pneumatonometry). The settings on record: dog, topical 25 μL drop, Conc. 0.1%, 5 day study. The class given is in vivo. The protocol:
as §8

In another series the target is T5, HEP4 (Homo sapiens, UniProt P35408).
T5 construct: expressed in transfected cells; host or cells: HEK-293
T5 sequence (P35408 whole entry): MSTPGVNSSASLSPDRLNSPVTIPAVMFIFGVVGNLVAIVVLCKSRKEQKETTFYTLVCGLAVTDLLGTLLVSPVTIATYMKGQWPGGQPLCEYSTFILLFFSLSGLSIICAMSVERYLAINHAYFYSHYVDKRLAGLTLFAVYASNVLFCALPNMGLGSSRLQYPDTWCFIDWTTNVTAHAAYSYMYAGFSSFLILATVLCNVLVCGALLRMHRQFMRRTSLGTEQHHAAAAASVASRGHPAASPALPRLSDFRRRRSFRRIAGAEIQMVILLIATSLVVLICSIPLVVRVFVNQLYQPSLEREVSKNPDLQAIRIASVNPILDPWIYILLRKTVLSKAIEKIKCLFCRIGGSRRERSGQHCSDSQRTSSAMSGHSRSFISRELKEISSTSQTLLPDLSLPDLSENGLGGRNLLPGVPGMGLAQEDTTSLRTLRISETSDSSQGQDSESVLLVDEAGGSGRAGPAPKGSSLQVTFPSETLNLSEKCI
In words: Radioligand binding, EP4 receptor. Conditions: [3H]PGE2 5 nM, HEK-293 membranes. The procedure: as §5, §6, §7

In the next series the target is T6, hIP (Homo sapiens, UniProt P43119).
T6 construct: expressed in transfected cells; host or cells: HEK-293 (EBNA)
T6 sequence (P43119 whole entry): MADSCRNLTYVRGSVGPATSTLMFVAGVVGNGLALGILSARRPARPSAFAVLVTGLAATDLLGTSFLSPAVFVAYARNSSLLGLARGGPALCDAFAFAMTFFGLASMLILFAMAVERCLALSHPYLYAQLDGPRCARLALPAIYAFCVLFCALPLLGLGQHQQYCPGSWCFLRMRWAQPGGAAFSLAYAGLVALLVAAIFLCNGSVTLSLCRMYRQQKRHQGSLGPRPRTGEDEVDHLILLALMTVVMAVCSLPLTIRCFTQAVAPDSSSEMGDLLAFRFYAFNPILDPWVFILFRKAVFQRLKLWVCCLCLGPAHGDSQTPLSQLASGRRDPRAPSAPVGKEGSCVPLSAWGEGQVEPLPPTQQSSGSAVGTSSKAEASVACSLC
In words: FLIPR calcium signal, hIP. It is filed as cell-based. Conditions: HEK-293 (EBNA) cells, read-out: FUNCTIONAL EC50 HIP. The procedure: as §1
Cells were seeded at a density of 5×10^4 cells per well in Biocoat® Poly-D-lysine-coated black-wall, clear-bottom 96-well plates (Becton-Dickinson) and allowed to attach overnight in an incubator at 37° C. Cells were then washed two times with HBSS-HEPES buffer (Hanks Balanced Salt Solution without bicarbonate and phenol red, 20 mM HEPES, pH 7.4) using a Denley Cellwash plate washer (Labsystems). […]
Cells were excited with an Argon laser at 488 nm, and emission was measured through a 510–570 nm bandwidth emission filter (FLIPR™, Molecular Devices, Sunnyvale, Calif.). […] The peak increase in fluorescence intensity was recorded for each well. […] The peak fluorescence change in each drug-containing well was then expressed relative to the controls. […]

A further series concerns the target T7, hEP2/Gqs5 (Homo sapiens, UniProt P43116).
T7 construct: expressed in transfected cells; host or cells: HEK-293 (EBNA)
In words: FLIPR calcium signal, hEP2/Gqs5. It is filed as cell-based. The settings on record: HEK-293 (EBNA) cells, read-out: FUNCTIONAL EC50 HEP2. The procedure: as §1, §2, §3
Compounds were tested in a high-throughput (HTS) or concentration-response (CoRe) format. […]

The target of a further series is T8, HEP3D (Homo sapiens, UniProt P43115).
T8 sequence (P43115 1-374 isoform P43115-4): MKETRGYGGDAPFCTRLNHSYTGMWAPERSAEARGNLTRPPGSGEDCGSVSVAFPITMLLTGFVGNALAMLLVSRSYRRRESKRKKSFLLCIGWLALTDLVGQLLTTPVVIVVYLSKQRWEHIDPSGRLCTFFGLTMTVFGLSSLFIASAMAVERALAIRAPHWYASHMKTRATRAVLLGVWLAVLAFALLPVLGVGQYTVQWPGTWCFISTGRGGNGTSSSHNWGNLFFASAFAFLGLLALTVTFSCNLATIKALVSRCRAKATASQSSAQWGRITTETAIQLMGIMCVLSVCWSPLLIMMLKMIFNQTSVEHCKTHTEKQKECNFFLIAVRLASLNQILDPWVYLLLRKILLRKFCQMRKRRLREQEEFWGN
In words: Radioligand binding, EP3 receptor. Conditions: [3H]PGE2 5 nM. The protocol:
as §5, §6, §7

SMILES strings stand for the structures. pEC50, pIC50: −log10 of the molar value.

T4 sequence (P35408 whole entry): as the sequence (P35408 whole entry) above
T7 sequence (P43116 whole entry): as the sequence (P43116 whole entry) above

On to `O=C(O)CSCCCS[C@H]1C(=O)CC[C@@H]1/C=C/C(O)CCc1ccc2ccccc2c1` (single isomer, unassigned) [Compound 153], for which the negative logarithm of the EC50 (pEC50) (in general, −log10 of the EC50, conventionally taken in molar units) on hTP is less than 5.00; at hEP3A/Gqi5, less than 5.00; at hEP4/Gqs5, 9.52. Besides, the pIC50 – broadly, the IC50 on a negative log10 scale, so that one unit is a factor of ten – at HEP2 was less than 5.00; at HEP4 it was 6.85. In addition, the Max hyperemia in the series on Beagle dogs [1] was determined as 1.8. Besides, in the series with Beagle dogs [2], the “Max. ΔIOP” value is −4.4 mm Hg.
For `COC(=O)CSCCCS[C@H]1C(=O)C[C@@H](CO)[C@@H]1/C=C/C(O)CCc1ccc2ccccc2c1` (single isomer, unassigned) [drawing 39], the pEC50 at hIP is less than 5.00; at hEP4/Gqs5 it was 5.73. The pIC50 at HEP4 was 6.85.
On to `O=C(O)CSCCCS[C@H]1C(=O)CC[C@@H]1/C=C/C(O)Cc1csc2ccccc12` (single isomer, unassigned) [drawing 55, {3-[2-(4-Benzo[b]thiophen-3-yl-3-hydroxy-but-1-enyl)-5-oxo-cyclopentylsulfanyl]-propylsulfanyl}-acetic acid], for which the pEC50 on hTP was 8.43; on hEP2/Gqs5 it was less than 5.00; on hIP it was 6.41; at hEP3A/Gqi5 it was less than 5.00; on hEP4/Gqs5, 5.14. Besides, the results for the pIC50 at HEP2, on HEP3D and at HEP4 were 6.22, less than 5.00 and 7.59, respectively.
Regarding `O=C(O)CSCCCS[C@H]1C(=O)CC[C@@H]1/C=C/C(O)Cc1csc2ccccc12` (single isomer, unassigned) [drawing 56, {3-[2-(4-Benzo[b]thiophen-3-yl-3-hydroxy-but-1-enyl)-5-oxo-cyclopentylsulfanyl]-propylsulfanyl}-acetic acid], the pEC50 on hTP is less than 5.00; at hEP2/Gqs5, less than 5.00; at hEP3A/Gqi5, less than 5.00; at hEP4/Gqs5, 8.17. For the same compound, the results for the negative logarithm of the IC50 (pIC50) on HEP2 and on HEP3D were 5.46 and less than 5.00, respectively.
Take `O=C(O)CSCCCS[C@H]1C(=O)C[C@@H](CO)[C@@H]1/C=C/C(O)CCc1ccc2ccccc2c1` (stereo partly drawn) [Compound 141b, {3-[(1R,2S,3R)-3-Hydroxymethyl-2-((E)-3-hydroxy-5-naphthalen-2-yl-pent-1-enyl)-5-oxo-cyclopentylsulfanyl]-propylsulfanyl}-acetic acid]: the Max hyperemia with Beagle dogs [1] was found to be 0.7. The pEC50 at hEP4/Gqs5 is 6.66. The “Max. ΔIOP” value in the series on Beagle dogs [2] is on record as −1.6 mm Hg. The pIC50 at HEP4 was 6.40.
